The structures appear in SMILES notation.

Test [1] has as its target T1, ctDnf1p-Cdc50p (Thermochaetoides thermophila, UniProt G0S196). Details: gene DNF1. To be noted: E2P state; phosphorylation site D606; phosphate analogue.
Test [2] deals with T1, ctDnf1p-Cdc50p. Nature of the test: cryo-EM structure in lipid nanodiscs, […] Å. Details: gene DNF1; purified heterodimer; reconstituted into lipid nanodiscs (MSP) for cryo-EM; printed residues D606 (phosphorylation site), Q549, N550, S555, S559, E561, N1153, S1158; with Cell division control protein 50 (CDC50 family beta-subunit). To be noted: E1-ATP state; nucleotide-binding site, extended conformation.

Test [3] concerns the target T1, ctDnf1p-Cdc50p. Nature of the test: ATPase activity. The format is biochemical. Details: gene DNF1; purified heterodimer; reconstituted into lipid nanodiscs (MSP) for cryo-EM; printed residues D606 (phosphorylation site), Q549, N550, S555, S559, E561, N1153, S1158; with Cell division control protein 50 (CDC50 family beta-subunit). The following applies: phospholipid-dependent.

T1 sequence (G0S196 whole entry): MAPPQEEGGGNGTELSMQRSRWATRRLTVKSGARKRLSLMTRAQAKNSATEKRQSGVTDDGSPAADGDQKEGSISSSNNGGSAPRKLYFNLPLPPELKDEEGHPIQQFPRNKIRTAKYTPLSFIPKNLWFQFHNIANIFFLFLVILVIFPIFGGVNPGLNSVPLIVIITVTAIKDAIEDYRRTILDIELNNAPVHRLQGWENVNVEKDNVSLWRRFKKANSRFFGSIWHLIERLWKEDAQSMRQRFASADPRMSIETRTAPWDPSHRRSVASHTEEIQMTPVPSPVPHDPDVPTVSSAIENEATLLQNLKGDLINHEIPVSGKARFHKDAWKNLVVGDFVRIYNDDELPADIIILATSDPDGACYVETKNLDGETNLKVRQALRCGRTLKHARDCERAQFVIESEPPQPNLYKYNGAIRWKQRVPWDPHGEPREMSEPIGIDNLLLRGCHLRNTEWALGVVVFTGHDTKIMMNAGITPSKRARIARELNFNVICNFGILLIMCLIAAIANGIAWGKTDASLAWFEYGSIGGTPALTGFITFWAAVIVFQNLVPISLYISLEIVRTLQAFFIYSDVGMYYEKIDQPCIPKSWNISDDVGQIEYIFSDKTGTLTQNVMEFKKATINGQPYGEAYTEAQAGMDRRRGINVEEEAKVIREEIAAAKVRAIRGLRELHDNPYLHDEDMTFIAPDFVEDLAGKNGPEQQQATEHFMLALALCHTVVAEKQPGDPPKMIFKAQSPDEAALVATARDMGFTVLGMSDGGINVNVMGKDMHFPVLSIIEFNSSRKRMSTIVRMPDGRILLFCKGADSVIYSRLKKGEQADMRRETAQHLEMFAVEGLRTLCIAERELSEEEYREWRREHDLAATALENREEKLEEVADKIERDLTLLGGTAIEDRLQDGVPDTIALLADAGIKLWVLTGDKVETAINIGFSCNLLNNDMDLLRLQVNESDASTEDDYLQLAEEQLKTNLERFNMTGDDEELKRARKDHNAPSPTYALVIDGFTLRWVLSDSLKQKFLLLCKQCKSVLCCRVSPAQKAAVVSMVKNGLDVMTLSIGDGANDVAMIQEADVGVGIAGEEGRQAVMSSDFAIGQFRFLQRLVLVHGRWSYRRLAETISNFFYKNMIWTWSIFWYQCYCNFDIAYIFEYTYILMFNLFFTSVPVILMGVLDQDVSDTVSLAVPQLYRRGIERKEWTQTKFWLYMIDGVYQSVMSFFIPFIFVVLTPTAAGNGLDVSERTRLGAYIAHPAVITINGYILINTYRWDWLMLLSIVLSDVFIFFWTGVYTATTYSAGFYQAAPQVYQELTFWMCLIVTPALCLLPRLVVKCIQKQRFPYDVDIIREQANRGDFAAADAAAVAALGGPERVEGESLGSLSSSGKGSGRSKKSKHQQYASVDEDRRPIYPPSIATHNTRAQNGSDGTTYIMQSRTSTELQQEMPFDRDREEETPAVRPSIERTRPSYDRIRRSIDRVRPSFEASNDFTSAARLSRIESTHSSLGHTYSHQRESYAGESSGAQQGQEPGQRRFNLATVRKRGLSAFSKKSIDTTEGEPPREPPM
T1 sequence (G0SDN0 whole entry partner): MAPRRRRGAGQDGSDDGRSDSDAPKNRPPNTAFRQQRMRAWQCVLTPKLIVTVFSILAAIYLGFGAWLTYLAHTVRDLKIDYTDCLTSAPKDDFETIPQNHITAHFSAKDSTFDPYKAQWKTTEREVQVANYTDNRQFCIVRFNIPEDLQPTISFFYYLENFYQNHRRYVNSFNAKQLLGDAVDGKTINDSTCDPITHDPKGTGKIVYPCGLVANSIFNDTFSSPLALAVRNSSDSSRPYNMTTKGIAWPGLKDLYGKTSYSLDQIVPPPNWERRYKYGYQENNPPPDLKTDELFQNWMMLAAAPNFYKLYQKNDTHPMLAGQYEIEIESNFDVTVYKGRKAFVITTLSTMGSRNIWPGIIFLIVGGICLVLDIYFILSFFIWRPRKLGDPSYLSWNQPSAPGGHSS

Take `[F][Be-]([F])[F]` [BeF3^−]: in test [1], the “cryo-EM structure in lipid nanodiscs, 3.4 Å” value is listed as “In the E2P structure, BeF3^− is bound at the phosphorylation site D606”. Turning to `Nc1ncnc2c1ncn2[C@@H]1O[C@H](COP(=O)(O)OP(=O)(O)CP(=O)(O)O)[C@@H](O)[C@H]1O` [AMPPCP], the “cryo-EM structure in lipid nanodiscs, 3.5 Å” value in test [2] was “In the E1-ATP structure, AMPPCP adapts an extended conformation”.

In the case of `Nc1ncnc2c1ncn2[C@@H]1O[C@H](COP(=O)(O)OP(=O)(O)OP(=O)(O)O)[C@@H](O)[C@H]1O` [ATP], the ATPase activity entry in test [3] is “The purified ctDnf1p-Cdc50p heterodimer showed phospholipid-dependent ATPase activity”.
